Data reported in article PMC11530802, “Evolution, structure, and drug-metabolizing activity of mammalian prenylcysteine oxidases” (The Journal of Biological Chemistry, 2024).

Target: T1, PCYOX1 (mammalian ancestor)
T1 construct: mammalian ancestor's PCYOX1 (26-502), without signal peptide, six histidine N-terminal tag
Assay: microscale thermophoresis; GC-MS detection of farnesal
Assay type: binding, synthetic construct

Work on CC(C)=CCC/C(C)=C/CC/C(C)=C/CSc1ccccc1C(=O)O [salirasib] yielded a Kd of 12 ± 0.2 µM.
